For the test, the target named is T1, 3XFLAG-SHIP164Δ901–1099 (Homo sapiens, UniProt A0JNW5, DEL901-1099).
T1 construct: gene BLTP3B; residues 901-1099 (predicted unstructured) deleted; N-terminal 3xFLAG tag kept; expressed in Expi293F; tail-to-tail dimer in vitro
Nature of the test: native gel co-migration, NBD fluorescence calibrated with E-Syt2 standard curve. It is filed as binding. Particulars: 0.2 mM NBD-PE, 2 h on ice; labelled compound; stoichiometry estimate.

The structures appear in SMILES notation.

T1 sequence (A0JNW5 with tags, fused parts or gaps DEL901-1099): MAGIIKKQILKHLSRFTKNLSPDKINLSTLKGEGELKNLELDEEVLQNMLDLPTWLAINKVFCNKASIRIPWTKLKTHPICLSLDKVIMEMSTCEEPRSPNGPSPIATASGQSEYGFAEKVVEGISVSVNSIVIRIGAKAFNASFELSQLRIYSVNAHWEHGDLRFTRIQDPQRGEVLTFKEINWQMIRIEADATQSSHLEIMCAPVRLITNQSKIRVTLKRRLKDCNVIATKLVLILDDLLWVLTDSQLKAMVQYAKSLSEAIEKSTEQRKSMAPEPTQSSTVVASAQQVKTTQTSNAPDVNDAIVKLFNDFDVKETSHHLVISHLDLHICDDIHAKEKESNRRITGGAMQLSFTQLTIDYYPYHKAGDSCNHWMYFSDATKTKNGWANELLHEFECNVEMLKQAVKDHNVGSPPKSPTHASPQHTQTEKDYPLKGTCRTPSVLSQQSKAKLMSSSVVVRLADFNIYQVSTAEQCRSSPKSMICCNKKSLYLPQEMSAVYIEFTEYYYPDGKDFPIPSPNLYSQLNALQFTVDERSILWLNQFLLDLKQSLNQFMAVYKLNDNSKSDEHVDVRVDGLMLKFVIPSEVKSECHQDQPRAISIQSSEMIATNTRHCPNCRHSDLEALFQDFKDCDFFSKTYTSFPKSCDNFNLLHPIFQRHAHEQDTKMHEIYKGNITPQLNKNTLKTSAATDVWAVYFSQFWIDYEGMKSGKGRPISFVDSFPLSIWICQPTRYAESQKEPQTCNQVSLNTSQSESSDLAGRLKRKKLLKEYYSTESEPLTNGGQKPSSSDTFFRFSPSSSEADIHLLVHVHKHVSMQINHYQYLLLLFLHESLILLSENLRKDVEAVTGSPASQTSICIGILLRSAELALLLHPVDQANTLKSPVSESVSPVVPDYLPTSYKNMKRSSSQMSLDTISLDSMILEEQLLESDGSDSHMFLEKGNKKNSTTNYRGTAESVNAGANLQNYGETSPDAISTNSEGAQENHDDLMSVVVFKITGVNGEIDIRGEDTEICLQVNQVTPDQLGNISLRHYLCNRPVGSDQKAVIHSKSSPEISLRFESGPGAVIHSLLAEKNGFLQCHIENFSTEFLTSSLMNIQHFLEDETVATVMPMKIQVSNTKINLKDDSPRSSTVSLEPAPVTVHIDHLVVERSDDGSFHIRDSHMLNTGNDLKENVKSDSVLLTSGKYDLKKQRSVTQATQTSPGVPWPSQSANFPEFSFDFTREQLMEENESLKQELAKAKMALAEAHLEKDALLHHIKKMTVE

In the case of `CCCCCCCC/C=C\CCCCCCCC(=O)OC[C@H](COP(=O)(O)OCCNc1ccc([N+](=O)[O-])c2nonc12)OC(=O)CCCCCCC/C=C\CCCCCCCC` [NBD-PE], the “lipids per SHIP164 molecule” value is reported as ~ 8 lipids per protein molecule.

Values taken from PMC9067936, “SHIP164 is a chorein motif lipid transfer protein that controls endosome–Golgi membrane traffic” (The Journal of Cell Biology, 2022).
